# Data from PubChem BioAssay (NCI).
#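 Five compound concentrations were applied to cells in 96-well plates for 48 hours; endpoints were derived by simple linear interpolation of the resulting dose-response curve. TGI denotes the concentration required for complete inhibition of growth.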
# Experiments:
# Assay in all cases: NCI-60 cell line screen, 48 h
# 786-0 renal = test system: 786-0 renal
# A498 renal = test system: A498 renal
# A549 NSCLC = test system: A549 NSCLC
# ACHN renal = test system: ACHN renal
# BT-549 breast = test system: BT-549 breast
# CAKI-1 renal = test system: CAKI-1 renal
# CCRF-CEM leukemia = test system: CCRF-CEM leukemia
# COLO 205 colon = test system: COLO 205 colon
# DU-145 prostate = test system: DU-145 prostate
# EKVX NSCLC = test system: EKVX NSCLC
# HCC-2998 colon = test system: HCC-2998 colon
# HCT-116 colon = test system: HCT-116 colon
# HCT-15 colon = test system: HCT-15 colon
# HL-60(TB) leukemia = test system: HL-60(TB) leukemia
# HOP-62 NSCLC = test system: HOP-62 NSCLC
# HOP-92 NSCLC = test system: HOP-92 NSCLC
# HS 578T breast = test system: HS 578T breast
# HT29 colon = test system: HT29 colon
# IGROV1 ovarian = test system: IGROV1 ovarian
# K-562 leukemia = test system: K-562 leukemia
# KM12 colon = test system: KM12 colon
# LOX IMVI melanoma = test system: LOX IMVI melanoma
# M14 melanoma = test system: M14 melanoma
# MALME-3M melanoma = test system: MALME-3M melanoma
# MCF7 breast = test system: MCF7 breast
# MDA-MB-231 breast = test system: MDA-MB-231 breast
# MDA-N = test system: MDA-N
# MOLT-4 leukemia = test system: MOLT-4 leukemia
# NCI-H226 lung = test system: NCI-H226 lung
# NCI-H23 lung = test system: NCI-H23 lung
# NCI-H460 lung = test system: NCI-H460 lung
# NCI/ADR-RES ovarian = test system: NCI/ADR-RES ovarian
# OVCAR-3 ovarian = test system: OVCAR-3 ovarian
# OVCAR-4 ovarian = test system: OVCAR-4 ovarian
# OVCAR-5 ovarian = test system: OVCAR-5 ovarian
# OVCAR-8 ovarian = test system: OVCAR-8 ovarian
# PC-3 prostate = test system: PC-3 prostate
# RXF 393 renal = test system: RXF 393 renal
# SF-268 CNS = test system: SF-268 CNS
# SF-295 CNS = test system: SF-295 CNS
# SF-539 CNS = test system: SF-539 CNS
# SK-MEL-2 melanoma = test system: SK-MEL-2 melanoma
# SK-MEL-28 melanoma = test system: SK-MEL-28 melanoma
# SK-MEL-5 melanoma = test system: SK-MEL-5 melanoma
# SK-OV-3 ovarian = test system: SK-OV-3 ovarian
# SN12C renal = test system: SN12C renal
# SNB-19 CNS = test system: SNB-19 CNS
# SNB-75 CNS = test system: SNB-75 CNS
# SR leukemia = test system: SR leukemia
# SW-620 colon = test system: SW-620 colon
# T-47D breast = test system: T-47D breast
# TK-10 renal = test system: TK-10 renal
# U251 CNS = test system: U251 CNS
# UACC-257 melanoma = test system: UACC-257 melanoma
# UACC-62 melanoma = test system: UACC-62 melanoma
# UO-31 renal = test system: UO-31 renal
# MDA-MB-435 = test system: MDA-MB-435
# NCI-H522 lung = test system: NCI-H522 lung
# RPMI-8226 leukemia = test system: RPMI-8226 leukemia
smiles,measurement,setting,value
Nc1ccc2c(=O)cc(-c3cccs3)[nH]c2n1,TGI,786-0 renal,> 100 µM
same,TGI,A498 renal,> 100 µM
same,TGI,A549 NSCLC,> 37.5 µM
same,TGI,ACHN renal,> 100 µM
same,TGI,BT-549 breast,> 100 µM
same,TGI,CAKI-1 renal,> 100 µM
same,TGI,CCRF-CEM leukemia,> 44.9 µM
same,TGI,COLO 205 colon,6.95 µM
same,TGI,DU-145 prostate,> 100 µM
same,TGI,EKVX NSCLC,> 100 µM
same,TGI,HCC-2998 colon,27.5 µM
same,TGI,HCT-116 colon,> 50.8 µM
same,TGI,HCT-15 colon,> 60.4 µM
same,TGI,HL-60(TB) leukemia,0.671 µM
same,TGI,HOP-62 NSCLC,> 100 µM
same,TGI,HOP-92 NSCLC,> 100 µM
same,TGI,HS 578T breast,> 24.9 µM
same,TGI,HT29 colon,> 72 µM
same,TGI,IGROV1 ovarian,> 100 µM
same,TGI,K-562 leukemia,> 100 µM
same,TGI,KM12 colon,> 100 µM
same,TGI,LOX IMVI melanoma,> 45.4 µM
same,TGI,M14 melanoma,> 54.8 µM
same,TGI,MALME-3M melanoma,> 100 µM
same,TGI,MCF7 breast,> 100 µM
same,TGI,MDA-MB-231 breast,> 100 µM
same,TGI,MDA-N,1.73 µM
same,TGI,MOLT-4 leukemia,> 35.5 µM
same,TGI,NCI-H226 lung,8.62 µM
same,TGI,NCI-H23 lung,> 26.3 µM
same,TGI,NCI-H460 lung,> 100 µM
same,TGI,NCI/ADR-RES ovarian,5.5 µM
same,TGI,OVCAR-3 ovarian,> 100 µM
same,TGI,OVCAR-4 ovarian,> 100 µM
same,TGI,OVCAR-5 ovarian,> 100 µM
same,TGI,OVCAR-8 ovarian,> 60.5 µM
same,TGI,PC-3 prostate,> 28.3 µM
same,TGI,RXF 393 renal,> 100 µM
same,TGI,SF-268 CNS,> 100 µM
same,TGI,SF-295 CNS,> 53.4 µM
same,TGI,SF-539 CNS,6.17 µM
same,TGI,SK-MEL-2 melanoma,> 100 µM
same,TGI,SK-MEL-28 melanoma,> 100 µM
same,TGI,SK-MEL-5 melanoma,21 µM
same,TGI,SK-OV-3 ovarian,> 100 µM
same,TGI,SN12C renal,> 59.7 µM
same,TGI,SNB-19 CNS,> 100 µM
same,TGI,SNB-75 CNS,> 28.5 µM
same,TGI,SR leukemia,> 34 µM
same,TGI,SW-620 colon,> 100 µM
same,TGI,T-47D breast,> 100 µM
same,TGI,TK-10 renal,> 100 µM
same,TGI,U251 CNS,> 45.6 µM
same,TGI,UACC-257 melanoma,> 100 µM
same,TGI,UACC-62 melanoma,> 100 µM
same,TGI,UO-31 renal,26.6 µM
CN1C/C(=C\c2cccs2)C2=NN(C)C(c3cccs3)C2C1 (configuration not stated),TGI,786-0 renal,> 100 µM
same,TGI,A498 renal,> 100 µM
same,TGI,A549 NSCLC,> 100 µM
same,TGI,ACHN renal,> 100 µM
same,TGI,BT-549 breast,> 100 µM
same,TGI,CAKI-1 renal,> 100 µM
same,TGI,CCRF-CEM leukemia,> 100 µM
same,TGI,COLO 205 colon,> 100 µM
same,TGI,DU-145 prostate,> 100 µM
same,TGI,EKVX NSCLC,> 100 µM
same,TGI,HCC-2998 colon,> 100 µM
same,TGI,HCT-116 colon,> 100 µM
same,TGI,HCT-15 colon,> 100 µM
same,TGI,HL-60(TB) leukemia,43.6 µM
same,TGI,HOP-62 NSCLC,> 100 µM
same,TGI,HOP-92 NSCLC,> 100 µM
same,TGI,HS 578T breast,> 100 µM
same,TGI,HT29 colon,> 100 µM
same,TGI,IGROV1 ovarian,> 100 µM
same,TGI,K-562 leukemia,> 100 µM
same,TGI,KM12 colon,> 100 µM
same,TGI,LOX IMVI melanoma,> 100 µM
same,TGI,M14 melanoma,> 100 µM
same,TGI,MALME-3M melanoma,> 100 µM
same,TGI,MCF7 breast,> 100 µM
same,TGI,MDA-MB-231 breast,> 100 µM
same,TGI,MDA-MB-435,> 100 µM
same,TGI,MDA-N,> 100 µM
same,TGI,MOLT-4 leukemia,> 100 µM
same,TGI,NCI-H226 lung,> 100 µM
same,TGI,NCI-H23 lung,> 100 µM
same,TGI,NCI-H460 lung,> 100 µM
same,TGI,NCI-H522 lung,> 100 µM
same,TGI,NCI/ADR-RES ovarian,> 100 µM
same,TGI,OVCAR-3 ovarian,> 100 µM
same,TGI,OVCAR-4 ovarian,> 100 µM
same,TGI,OVCAR-5 ovarian,> 100 µM
same,TGI,OVCAR-8 ovarian,> 100 µM
same,TGI,PC-3 prostate,> 100 µM
same,TGI,RPMI-8226 leukemia,95.3 µM
same,TGI,RXF 393 renal,> 100 µM
same,TGI,SF-268 CNS,> 100 µM
same,TGI,SF-295 CNS,> 100 µM
same,TGI,SK-MEL-2 melanoma,81.2 µM
same,TGI,SK-MEL-28 melanoma,> 100 µM
same,TGI,SK-MEL-5 melanoma,> 100 µM
same,TGI,SK-OV-3 ovarian,> 100 µM
same,TGI,SN12C renal,> 100 µM
same,TGI,SNB-19 CNS,> 100 µM
same,TGI,SW-620 colon,> 100 µM
same,TGI,T-47D breast,> 100 µM
same,TGI,TK-10 renal,> 100 µM
same,TGI,U251 CNS,> 100 µM
same,TGI,UACC-257 melanoma,> 100 µM
same,TGI,UACC-62 melanoma,> 100 µM
same,TGI,UO-31 renal,> 100 µM
